The source of these data is patent publication US10280160B2, “Phthalazinone compounds and methods for the treatment of cystic fibrosis” (FLATLEY DISCOVERY LAB, LLC, priority 2013, dated 2019).

Structures are written as SMILES.

human F508del CFTR, sequence (P13569 other isoform, or with tags, fused parts or gaps del F508-F508): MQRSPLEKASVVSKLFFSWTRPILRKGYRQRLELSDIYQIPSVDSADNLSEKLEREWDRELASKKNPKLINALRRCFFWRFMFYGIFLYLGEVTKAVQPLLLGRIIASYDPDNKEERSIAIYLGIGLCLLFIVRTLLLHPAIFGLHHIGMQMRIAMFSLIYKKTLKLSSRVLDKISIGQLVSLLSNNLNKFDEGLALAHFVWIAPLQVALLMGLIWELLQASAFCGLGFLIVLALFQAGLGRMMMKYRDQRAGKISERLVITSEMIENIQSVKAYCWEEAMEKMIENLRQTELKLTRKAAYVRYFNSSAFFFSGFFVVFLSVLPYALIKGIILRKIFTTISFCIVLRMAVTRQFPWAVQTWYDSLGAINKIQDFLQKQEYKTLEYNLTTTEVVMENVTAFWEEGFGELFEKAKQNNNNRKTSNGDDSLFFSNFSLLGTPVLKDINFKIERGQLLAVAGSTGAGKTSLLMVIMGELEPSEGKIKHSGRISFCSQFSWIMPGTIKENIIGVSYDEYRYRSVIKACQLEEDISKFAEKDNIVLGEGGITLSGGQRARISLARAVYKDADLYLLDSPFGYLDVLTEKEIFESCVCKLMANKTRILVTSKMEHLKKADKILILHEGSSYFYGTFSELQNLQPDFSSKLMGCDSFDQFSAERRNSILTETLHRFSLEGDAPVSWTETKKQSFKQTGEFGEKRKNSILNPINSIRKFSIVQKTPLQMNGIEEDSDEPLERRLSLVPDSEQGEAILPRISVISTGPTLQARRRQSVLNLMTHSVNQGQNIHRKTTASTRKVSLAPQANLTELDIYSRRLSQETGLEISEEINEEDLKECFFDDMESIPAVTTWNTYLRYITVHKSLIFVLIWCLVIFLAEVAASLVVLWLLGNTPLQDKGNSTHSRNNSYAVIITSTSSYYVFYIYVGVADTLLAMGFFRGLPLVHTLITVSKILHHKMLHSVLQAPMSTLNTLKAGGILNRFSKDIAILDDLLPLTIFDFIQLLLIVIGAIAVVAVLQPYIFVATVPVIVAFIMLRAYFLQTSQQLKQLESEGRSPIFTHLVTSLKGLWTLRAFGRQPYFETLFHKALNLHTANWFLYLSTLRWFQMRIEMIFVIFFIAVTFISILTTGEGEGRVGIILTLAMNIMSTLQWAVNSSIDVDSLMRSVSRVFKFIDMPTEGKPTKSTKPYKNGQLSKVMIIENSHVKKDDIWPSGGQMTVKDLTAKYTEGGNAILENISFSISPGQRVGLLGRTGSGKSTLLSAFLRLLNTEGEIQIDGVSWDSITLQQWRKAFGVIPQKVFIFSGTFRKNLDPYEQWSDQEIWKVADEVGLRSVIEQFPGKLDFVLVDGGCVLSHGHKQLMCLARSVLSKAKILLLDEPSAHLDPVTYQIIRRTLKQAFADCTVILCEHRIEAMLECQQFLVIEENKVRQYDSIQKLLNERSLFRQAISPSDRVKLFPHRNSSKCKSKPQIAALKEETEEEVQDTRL

The target in the assay is human F508del CFTR (Homo sapiens (Human), UniProt P13569, DEL508-508). Kind of assay: CFTR-YFP High Throughput Assay (YFP halide flux, FRT cells). Format: cell-based. The conditions noted are these: EMax normalized to the positive control; FRT cells expressing human F508del CFTR and YFP; read-out: % Efficacy. The protocol:
Assays for Detecting and Measuring the Effect of Compounds on F508del-CFTR Channels CFTR-YFP Assay-CFTR Corrector Protocol:
This protocol is designed to selectively screen small molecule compounds for F508del CFTR corrector activities in the YFP (yellow fluorescent protein) flux assay. In this protocol, the cells are incubated with testing compounds for 24 hours, washed with PBS, stimulated with forskolin and a standard potentiator, and fluorescence in each plate well is measured kinetically read on a 384-well plate reader, such as the Hamamatsu FDSS-6000.
YFP fluorescence intensity values are acquired at high speed before and after iodide buffer is injected to the assay cells. Iodide enters the cells via active CFTR channels in the plasma membrane, and quenches the YFP fluorescence. The rate of fluorescence quenching is proportionate to the total CFTR activity in the cell membrane. F508del CFTR correctors increase the number of CFTR molecules in the testing cell plasma membrane, and thereby accelerate YFP quenching.
This method was initially developed for bench top plate readers (Galietta, J, Jayaraman, S and Verkman, A S. Cell-based assay for high-throughput quantitative screening of CFTR chloride transport agonists. Am. J. Physiol. Cell Physiol. (2001), 281: C173), and was adapted to the HTS format (Sui J, Cotard S, Andersen J, Zhu P, Staunton J, Lee M, Lin S. Optimization of a Yellow fluorescent protein-based iodide influx high-throughput screening assay for cystic fibrosis transmembrane conductance regulator (CFTR) modulators. Assay Drug Dev Technol. (2010), 8: 656-668).
Fisher Rat Thyroid (FRT) cells stably expressing both human F508del CFTR and a halide-sensitive yellow fluorescent protein (YFP-H148Q/I152L 25,22) (Galietta et al. Am. J. Physiol Cell Physiol 281(5), C1734, 2001) were cultured on plastic surface in Coon's modified Ham's F12 medium supplemented with FBS 10%, L-glutamine 2 mM, penicillin 100 U/ml, and streptomycin 100 μg/ml. G418 (0.75-1.0 mg/ml) and zeocin (3.2 ug/ml) were used for selection of FRT cells expressing F508del CFTR and YFP. For primary screening, FRT cells were plated into 384-well black wall, transparent bottom microtiter plates (Costar; Corning Inc.) at a cell density of 20,000-40,000 per well. Test compound was applied to the cells at varying concentrations ranging from 2 nM-40 μM in either a 2-fold or 3-fold dilution series. Cells were incubated in a cell culture incubator at 37° C. with 5% CO2 for 24-26 h. Assay plates were washed with DPBS media (Thermo, cat # SH30028.02) to remove unbound cells and compound. Stimulation media (25 μL) containing 20 μM Forskolin & 30 μM P3 [6-(Ethyl-phenyl-sulfonyl)-4-oxo-1,4-dihydro-quinoline-3-carboxylic acid 2-methoxy-benzylamide] in Hams F-12 coon's modified media was added to the plate wells and incubated at room temperature for 60-120 min. 25 μL of HEPES-PBS-I buffer (10 mM HEPES, 1 mM MgCl2, 3 mM KCl, 1 mM CaCl2, 150 mM NaI) was then added and fluorescence quench curves (Excitation 500 nm/Emission 540 nm; exposure 136 ms) were immediately recorded on an FDSS-6000 plate reader (Hamamatsu). Quench rates were derived from least squares fitting of the data as described by Sui et al (2010).
CFTR-YFP Assay-CFTR Potentiator Protocol:
This protocol is designed to selectively screen small molecule compounds for F508del CFTR potentiator activities in the YFP (yellow fluorescent protein) flux assay. Such compounds act acutely to stimulate CFTR already expressed on the membrane surface. In this protocol, the cells are incubated at 27° C. for 24 hours to homogeneously boost F508del CFTR expression in the cell membrane (low temperature correction), washed with PBS, treated with test compound, and CFTR activity is stimulated with forskolin for 1-2 hr. Measurement of ion flux is initiated by addition of iodide-containing buffer, and YFP quenching is kinetically recorded using a 384-well plate reader, such as the Hamamatsu FDSS-6000. […]
Consider `COc1ccc2c(-c3cccc(F)c3)nn(CC(=O)N(C)c3ccc4nc(C)oc4c3)c(=O)c2c1` [Example 3, 2-(4-(3-fluorophenyl)-7-methoxy-1-oxophthalazin-2(1H)-yl)-N-methyl-N-(2-methylbenzo[d]oxazol-6-yl)acetamide], for which the Emax is 30 to 80%.

On to `Cc1nc2ccc(N(C)C(=O)Cn3nc(-c4cccc(Cl)c4)c4ccc(O)cc4c3=O)cc2o1` [Example 16, 2-(4-(3-chlorophenyl)-7-hydroxy-1-oxophthalazin-2(1H)-yl)-N-methyl-N-(2-methylbenzo[d]oxazol-6-yl)acetamide], for which the Emax is above 80%. On to `Cc1nc2ccc(N(C)C(=O)Cn3nc(-c4cccc(Cl)c4)c4ccc(OCC5CC5)cc4c3=O)cc2o1` [Example 24, 2-(4-(3-chlorophenyl)-7-(cyclopropylmethoxy)-1-oxophthalazin-2(1H)-yl)-N-methyl-N-(2-methylbenzo[d]oxazol-6-yl)acetamide], for which the Emax was above 80%. With `Cc1nc2ccc(N(C)C(=O)Cn3nc(-c4cccc(F)c4)c4ccc(O)cc4c3=O)cc2o1` [Example 13, 2-(4-(3-fluorophenyl)-7-hydroxy-1-oxophthalazin-2(1H)-yl)-N-methyl-N-(2-methylbenzo[d]oxazol-6-yl)acetamide], the Emax is above 80%. The figure for `[2H]C([2H])([2H])N(C(=O)Cn1nc(-c2cccc(Cl)c2)c2ccc(OCC3CC3)cc2c1=O)c1ccc2nc(C)oc2c1` [Example 23, 2-(4-(3-chlorophenyl)-7-(cyclopropylmethoxy)-1-oxophthalazin-2(1H)-yl)-N-(methyl-d3)-N-(2-methylbenzo[d]oxazol-6-yl)acetamide] is 30 to 80%; for `COc1ccc2c(-c3cccc(Cl)c3)nn(CC(=O)N(C)c3ccc4nc(C)oc4c3)c(=O)c2c1` [Example 4, 2-(4-(3-chlorophenyl)-7-methoxy-1-oxophthalazin-2(1H)-yl)-N-methyl-N-(2-methylbenzo[d]oxazol-6-yl)acetamide] it is above 80%. Then `CCN(C(=O)Cn1nc(-c2cccc(F)c2)c2ccc(OC)cc2c1=O)c1ccc2nc(C)oc2c1` [Example 8, N-ethyl-2-(4-(3-fluorophenyl)-7-methoxy-1-oxophthalazin-2(1H)-yl)-N-(2-methylbenzo[d]oxazol-6-yl)acetamide], with above 80%; and `CCOc1cc2c(=O)n(CC(=O)N(C)c3ccc4nc(C)oc4c3)nc(-c3cccc(F)c3)c2cc1Cl` [Example 30], with 30 to 80%.

Take `[2H]C([2H])([2H])N(C(=O)Cn1nc(-c2cccc(Cl)c2)c2ccc(OC(C)C)cc2c1=O)c1ccc2nc(C)oc2c1` [Example 20, 2-(4-(3-chlorophenyl)-7-isopropoxy-1-oxophthalazin-2(1H)-yl)-N-(methyl-d3)-N-(2-methylbenzo[d]oxazol-6-yl)acetamide]: the Emax lay in the range of 30 to 80%.
